pEC50, pIC50: −log10 of the molar value. Where two headings read alike, the source gives them in different places.
How the values were obtained:
[1] = test system: AsPC-1 (K-Ras G12D); experiment: Potency assay: pERK in AsPC-1 cells; format: cell-based; conditions: Homo sapiens
[2] = test system: AsPC-1 (K-Ras G12D); experiment: CellTiter-Glo cell viability assay, AsPC-1; format: cell-based; conditions: Homo sapiens, ASPC1, 120 h
Description: Determination of Cell Viability in RAS Mutant Cancer Cell Lines
Protocol: CellTiter-Glo® Cell Viability Assay
Note—The following protocol describes a procedure for monitoring cell viability of K-Ras mutant cancer cell lines in response to a compound of the invention. Other RAS isoforms may be employed, though the number of cells to be seeded will vary based on cell line used.
Test compounds (132.5 nL) were directly dispensed into the assay plates containing cells. […] On day 5, assay plates and their contents were equilibrated to room temperature for approximately 30 minutes. […] Luminescence was measured using the PerkinElmer Enspire. Data were normalized by the following: (Sample signal/Avg. DMSO)*100. The data were fit using a four-parameter logistic fit.

[3] = ASPC1, read-out: pERK EC50 (AsPC-1 KRAS G12D)
[4] = read-out: AsPC-1 Cell Viability IC50, AsPC-1, K-Ras G12D, 5-day treatment
[5] = ASPC1, AsPC-1 cells, K-Ras G12D, read-out: pERK EC50 (AsPC-1 KRAS G12D)
[6] = AsPC-1, K-Ras G12D, 5-day treatment, read-out: AsPC-1 Cell Viability IC50

SMILES | pEC50 [1, 3] | pIC50 [2, 4] | pEC50 [1, 5] | pIC50 [2, 6]
CCn1c(-c2cccnc2[C@H](C)OC)c2c3cc(ccc31)-c1cc(O)cc(c1)C[C@H](NC(=O)[C@H](C(C)C)N(C)C(=O)CN(C)C(=O)[C@H]1N[C@@H]1C1COC1)C(=O)N1CCC[C@H](N1)C(=O)OCC(C)(C)C2 [Compound 284] | > 5.30 | 5.00 to 6.00 | – | –
CCn1c(-c2cccnc2[C@H](C)OC)c2c3cc(ccc31)-c1cc(O)cc(c1)C[C@H](NC(=O)[C@H](C(C)C)N(C)C(=O)N1CCCN(C(=O)[C@H]3CN3)CC1)C(=O)N1CCC[C@H](N1)C(=O)OCC(C)(C)C2 [Compound 190] | – | – | > 5.30 | 5.00 to 6.00
CCn1c(-c2cccnc2[C@H](C)OC)c2c3cc(ccc31)-c1csc(n1)C[C@H](NC(=O)[C@H](C(C)C)N(C)C(=O)N(C)[C@H]1CCCN(C(=O)[C@H]3CN3)C1)C(=O)N1CCC[C@H](N1)C(=O)OCC(C)(C)C2 [Compound 295] | – | – | > 5.30 | 5.00 to 6.00
CCn1c(-c2cccnc2[C@H](C)OC)c2c3cc(ccc31)-c1cc(O)cc(c1)C[C@H](NC(=O)[C@H](C(C)C)N(C)C(=O)[C@H]1CCN1C(=O)[C@H]1CN1)C(=O)N1CCC[C@H](N1)C(=O)OCC(C)(C)C2 [Compound 158] | – | – | > 5.30 | 5.00 to 6.00
CCn1c(-c2cccnc2[C@H](C)OC)c2c3cc(ccc31)-c1cc(O)cc(c1)C[C@H](NC(=O)[C@H](C(C)C)N(C)C(=O)[C@H]1CC[C@@H](C)N1C(=O)[C@@H]1CN1)C(=O)N1CCC[C@H](N1)C(=O)OCC(C)(C)C2 [Compound 153] | > 5.30 | 5.00 to 6.00 | – | –
CCn1c(-c2cccnc2[C@H](C)OC)c2c3cc(ccc31)-c1cc(O)cc(c1)C[C@H](NC(=O)[C@H](C1CCCC1)N(C)C(=O)CN(C)C(=O)[C@H]1N[C@H]1C1(F)CC1)C(=O)N1CCC[C@H](N1)C(=O)OCC(C)(C)C2 [Compound 315] | – | – | > 5.30 | 6.00 to 7.00
CCn1c(-c2cccnc2[C@H](C)OC)c2c3cc(ccc31)-c1cc(O)cc(c1)C[C@H](NC(=O)[C@H](C(C)C)N(C)C(=O)CN(C)C(=O)[C@H]1CN1C1COC1)C(=O)N1CCC[C@H](N1)C(=O)OCC(C)(C)C2 (stereo partly drawn) [Compound 275] | > 5.30 | 5.00 to 6.00 | – | –
CCn1c(-c2cccnc2[C@H](C)OC)c2c3cc(ccc31)-c1cc(O)cc(c1)C[C@H](NC(=O)[C@H](C(C)C)N(C)C(=O)CN(C)C(=O)[C@@H]1CN1CC(=O)N(C)C)C(=O)N1CCC[C@H](N1)C(=O)OCC(C)(C)C2 (stereo partly drawn) [Compound 271] | > 5.30 | < 5.00 | – | –
CCn1c(-c2cccnc2[C@H](C)OC)c2c3cc(ccc31)-c1cc(O)cc(c1)C[C@H](NC(=O)[C@H](C(C)C)N(C)C(=O)CN(C)C(=O)[C@@H]1N[C@@H]1C1COC1)C(=O)N1CCC[C@H](N1)C(=O)OCC(C)(C)C2 [Compound 281] | > 5.30 | 6.00 to 7.00 | – | –
CCn1c(-c2cccnc2[C@H](C)OC)c2c3cc(ccc31)-c1cc(O)cc(c1)C[C@H](NC(=O)[C@H](C(C)C)N(C)C(=O)[C@@H]1CCN(C(=O)[C@@H]3CN3)C1)C(=O)N1CCC[C@H](N1)C(=O)OCC(C)(C)C2 [Compound 172] | – | – | > 5.30 | 5.00 to 6.00
CCn1c(-c2cccnc2[C@H](C)OC)c2c3cc(ccc31)-c1cc(O)cc(c1)C[C@H](NC(=O)[C@H](C(C)C)N(C)C(=O)CN(C)C(=O)[C@@H]1CN1CC1COC1)C(=O)N1CCC[C@H](N1)C(=O)OCC(C)(C)C2 (stereo partly drawn) [Compound 278] | > 5.30 | 5.00 to 6.00 | – | –
CCn1c(-c2cccnc2[C@H](C)OC)c2c3cc(ccc31)-c1cccc(c1)C[C@H](NC(=O)[C@H](C(C)C)N(C)C(=O)CCN=C=NCCOC)C(=O)N1CCC[C@H](N1)C(=O)OCC(C)(C)C2 [Compound 74] | – | – | > 5.30 | 5.00 to 6.00
CCn1c(-c2cccnc2[C@H](C)OC)c2c3cc(ccc31)-c1cc(O)cc(c1)C[C@H](NC(=O)[C@H](C(C)C)N(C)C(=O)CN(C)C(=O)[C@H]1CN1CCCN1CCOC1=O)C(=O)N1CCC[C@H](N1)C(=O)OCC(C)(C)C2 (stereo partly drawn) [Compound 272] | > 5.30 | 5.00 to 6.00 | – | –
CCn1c(-c2cccnc2[C@H](C)OC)c2c3cc(ccc31)-c1cc(O)cc(c1)C[C@H](NC(=O)[C@H](C(C)C)N(C)C(=O)N1CCCN(C(=O)[C@@H]3CN3)CC1)C(=O)N1CCC[C@H](N1)C(=O)OCC(C)(C)C2 [Compound 173] | – | – | > 5.30 | 5.00 to 6.00
CCn1c(-c2cnccc2COC)c2c3cc(ccc31)-c1cc(O)cc(c1)C[C@H](NC(=O)[C@H](C(C)C)N(C)C(=O)CN(C)C(=O)[C@H]1N[C@H]1C(=O)OC)C(=O)N1CCC[C@H](N1)C(=O)OCC(C)(C)C2 [Compound 51] | > 5.30 | < 5.00 | – | –
CCn1c(-c2cccnc2[C@H](C)OC)c2c3cc(ccc31)-c1cc(O)cc(c1)C[C@H](NC(=O)[C@H](C(C)C)N(C)C(=O)CN(C)C(=O)[C@@H]1CN1CCO)C(=O)N1CCC[C@H](N1)C(=O)OCC(C)(C)C2 (stereo partly drawn) [Compound 162] | > 5.30 | 5.00 to 6.00 | – | –
CCn1c(-c2cccnc2[C@H](C)OC)c2c3cc(ccc31)-c1cc(O)cc(c1)C[C@H](NC(=O)[C@H](C(C)C)N(C)C(=O)C1CCN(S(=O)(=O)[C@H]3CN3C)CC1)C(=O)N1CCC[C@H](N1)C(=O)OCC(C)(C)C2 (single isomer, unassigned) [Compound 108] | – | – | > 5.30 | 5.00 to 6.00
CCn1c(-c2cnccc2COC)c2c3cc(ccc31)-c1cc(O)cc(c1)C[C@H](NC(=O)[C@H](C(C)C)N(C)C(=O)CCNC1=NCCO1)C(=O)N1CCC[C@H](N1)C(=O)OCC(C)(C)C2 [Compound 120] | – | – | > 5.30 | 5.00 to 6.00
CCn1c(-c2cccnc2[C@H](C)OC)c2c3cc(ccc31)-c1cc(O)cc(c1)C[C@H](NC(=O)[C@H](C(C)C)N(C)C(=O)[C@H]1C[C@H]3CC[C@@H](C1)N3C(=O)[C@H]1CN1)C(=O)N1CCC[C@H](N1)C(=O)OCC(C)(C)C2 [Compound 245] | – | – | > 5.30 | 5.00 to 6.00
CCn1c(-c2cccnc2[C@H](C)OC)c2c3cc(ccc31)-c1cc(O)cc(c1)C[C@H](NC(=O)[C@H](C(C)C)N(C)C(=O)[C@@H]1CCCN(C(=O)[C@@H]3CN3)C1)C(=O)N1CCC[C@H](N1)C(=O)OCC(C)(C)C2 [Compound 238] | – | – | > 5.30 | 5.00 to 6.00
CCn1c(-c2cccnc2[C@H](C)OC)c2c3cc(ccc31)-c1cc(O)cc(c1)C[C@H](NC(=O)[C@H](C(C)C)N(C)C(=O)[C@@H]1CCCN(C(=O)[C@H]3CN3)C1)C(=O)N1CCC[C@H](N1)C(=O)OCC(C)(C)C2 [Compound 237] | – | – | > 5.30 | 5.00 to 6.00
CCn1c(-c2cnccc2COC)c2c3cc(ccc31)-c1cc(O)cc(c1)C[C@H](NC(=O)[C@H](C(C)C)N(C)C(=O)CN(C)C(=O)[C@H]1N[C@H]1C1CC1)C(=O)N1CCC[C@H](N1)C(=O)OCC(C)(C)C2 [Compound 104] | > 5.30 | 5.00 to 6.00 | – | –
CCn1c(-c2cccnc2[C@H](C)OC)c2c3cc(ccc31)-c1cc(O)cc(c1)C[C@H](NC(=O)[C@H](C(C)C)N1CC[C@]3(CCN(C(=O)[C@@H]4N[C@@H]4C4CC4)C3)C1=O)C(=O)N1CCC[C@H](N1)C(=O)OCC(C)(C)C2 [Compound 305] | – | – | > 5.30 | 6.00 to 7.00
CCn1c(-c2cccnc2[C@H](C)OC)c2c3cc(ccc31)-c1cc(O)cc(c1)C[C@H](NC(=O)[C@H](C(C)C)N(C)C(=O)CN(C)C(=O)[C@H]1N[C@H]1C1COC1)C(=O)N1CCC[C@H](N1)C(=O)OCC(C)(C)C2 [Compound 282] | > 5.30 | 5.00 to 6.00 | – | –
CCn1c(-c2cccnc2[C@H](C)OC)c2c3cc(ccc31)-c1csc(n1)C[C@H](NC(=O)[C@H](C(C)C)N(C)C(=O)N(C)[C@H]1CCN(C(=O)[C@@H]3CN3)C1)C(=O)N1CCC[C@H](N1)C(=O)OCC(C)(C)C2 [Compound 310] | – | – | > 5.30 | 5.00 to 6.00
CCn1c(-c2cccnc2[C@H](C)OC)c2c3cc(ccc31)-c1cc(O)cc(c1)C[C@H](NC(=O)[C@H](C(C)C)N(C)C(=O)[C@H]1CCN1C(=O)[C@@H]1CN1)C(=O)N1CCC[C@H](N1)C(=O)OCC(C)(C)C2 [Compound 157] | – | – | > 5.30 | 5.00 to 6.00
CCn1c(-c2cccnc2[C@H](C)OC)c2c3cc(ccc31)-c1cc(O)cc(c1)C[C@H](NC(=O)[C@H](C(C)C)N(C)C(=O)N(C)CCN(C)C(=O)[C@H]1CN1)C(=O)N1CCC[C@H](N1)C(=O)OCC(C)(C)C2 [Compound 204] | – | – | > 5.30 | 5.00 to 6.00
CCn1c(-c2cnccc2COC)c2c3cc(ccc31)-c1cccc(c1)C[C@H](NC(=O)[C@H](C(C)C)N(C)C(=O)CCN=C=NC(C)(C)C)C(=O)N1CCC[C@H](N1)C(=O)OCC(C)(C)C2 [79 A and B] | – | – | > 5.30 | 5.00 to 6.00
CCn1c(-c2cccnc2[C@H](C)OC)c2c3cc(ccc31)-c1cccc(c1)C[C@H](NC(=O)[C@H](C(C)C)N(C)C(=O)[C@H]1CC[C@H](N=C=NC(C)C)C1)C(=O)N1CCC[C@H](N1)C(=O)OCC(C)(C)C2 [Compound 124] | – | – | > 5.30 | –

— US11739074B2, “Ras inhibitors” (Revolution Medicines, Inc., priority 2019, dated 2023)
